The target of series [1] is T1, Solute carrier organic anion transporter family member 1A1 (Rattus norvegicus, UniProt P46720).
T1 sequence (P46720 whole entry): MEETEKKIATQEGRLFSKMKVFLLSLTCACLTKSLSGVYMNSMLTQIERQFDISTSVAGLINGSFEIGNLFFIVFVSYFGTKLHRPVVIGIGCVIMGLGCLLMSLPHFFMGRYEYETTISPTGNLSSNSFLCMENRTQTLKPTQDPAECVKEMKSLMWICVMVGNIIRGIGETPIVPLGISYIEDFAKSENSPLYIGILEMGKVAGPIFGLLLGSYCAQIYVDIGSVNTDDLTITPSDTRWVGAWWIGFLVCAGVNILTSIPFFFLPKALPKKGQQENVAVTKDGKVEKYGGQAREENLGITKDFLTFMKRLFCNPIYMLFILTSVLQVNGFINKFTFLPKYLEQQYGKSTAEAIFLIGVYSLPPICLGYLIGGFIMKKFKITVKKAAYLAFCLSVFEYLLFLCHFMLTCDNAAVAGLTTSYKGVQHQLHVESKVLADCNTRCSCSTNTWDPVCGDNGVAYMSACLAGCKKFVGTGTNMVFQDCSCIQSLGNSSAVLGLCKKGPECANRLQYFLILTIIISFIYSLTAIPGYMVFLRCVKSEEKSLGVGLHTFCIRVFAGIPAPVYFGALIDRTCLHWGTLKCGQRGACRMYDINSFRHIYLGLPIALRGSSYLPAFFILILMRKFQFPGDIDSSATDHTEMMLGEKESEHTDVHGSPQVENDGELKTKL
Nature of the series: TP_TRANSPORTER: uptake in Oatp1-expressing COS-7 cells. It is filed as functional, cell-based. Particulars: monkey.

The target of series [2] is T2, Hepatic sodium/bile acid cotransporter (Rattus norvegicus, UniProt P26435).
T2 sequence (P26435 whole entry): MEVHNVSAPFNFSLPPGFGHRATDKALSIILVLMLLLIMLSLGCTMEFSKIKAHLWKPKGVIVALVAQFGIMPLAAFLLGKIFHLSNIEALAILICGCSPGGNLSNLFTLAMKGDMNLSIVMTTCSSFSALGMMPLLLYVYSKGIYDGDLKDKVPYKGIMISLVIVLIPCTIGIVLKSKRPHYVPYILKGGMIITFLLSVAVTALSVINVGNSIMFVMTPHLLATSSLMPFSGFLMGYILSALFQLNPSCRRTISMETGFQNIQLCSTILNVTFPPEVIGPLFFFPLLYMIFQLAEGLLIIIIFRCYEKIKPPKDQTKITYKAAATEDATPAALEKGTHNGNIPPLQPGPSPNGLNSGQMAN
Nature of the series: TP_TRANSPORTER: uptake in Ntcp-expressing COS-7 cells. It is filed as functional, cell-based. Particulars: monkey.

Consider 1 molecule from ChEMBL document CHEMBL2073924, “Carrier-mediated hepatic uptake of peptidic endothelin antagonists in rats” (J Pharmacol Exp Ther, 1999).

Peptide text beside a SMILES is read from it.

Turning to `CC(C)C[C@@H]1NC(=O)[C@@H](C(C)C)NC(=O)[C@@H]2CCCN2C(=O)[C@@H](CC(=O)O)NC(=O)[C@@H](Cc2c[nH]c3ccccc23)NC1=O` [BQ-123] (HELM PEPTIDE1{L.[dW].[dD].P.[dV]}$PEPTIDE1,PEPTIDE1,1:R1-5:R2$$$V2.0), the Activity result in series [1] and in series [2] was “is not a substrate [-]” in each case.
